Test results from ChEMBL document CHEMBL1909046, “DrugMatrix in vitro pharmacology data”.

Assays:
[1] = biological target: T1, Angiotensin-converting enzyme (Oryctolagus cuniculus, UniProt P12822); assay type: tissue-based, Lung;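 also: enzymatic inhibition of angiotensin-converting enzyme measured with FAPGG as the substrate; in other assays of this panel Not Active means under 50% inhibition at 10 µM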
T1 sequence (P12822 whole entry): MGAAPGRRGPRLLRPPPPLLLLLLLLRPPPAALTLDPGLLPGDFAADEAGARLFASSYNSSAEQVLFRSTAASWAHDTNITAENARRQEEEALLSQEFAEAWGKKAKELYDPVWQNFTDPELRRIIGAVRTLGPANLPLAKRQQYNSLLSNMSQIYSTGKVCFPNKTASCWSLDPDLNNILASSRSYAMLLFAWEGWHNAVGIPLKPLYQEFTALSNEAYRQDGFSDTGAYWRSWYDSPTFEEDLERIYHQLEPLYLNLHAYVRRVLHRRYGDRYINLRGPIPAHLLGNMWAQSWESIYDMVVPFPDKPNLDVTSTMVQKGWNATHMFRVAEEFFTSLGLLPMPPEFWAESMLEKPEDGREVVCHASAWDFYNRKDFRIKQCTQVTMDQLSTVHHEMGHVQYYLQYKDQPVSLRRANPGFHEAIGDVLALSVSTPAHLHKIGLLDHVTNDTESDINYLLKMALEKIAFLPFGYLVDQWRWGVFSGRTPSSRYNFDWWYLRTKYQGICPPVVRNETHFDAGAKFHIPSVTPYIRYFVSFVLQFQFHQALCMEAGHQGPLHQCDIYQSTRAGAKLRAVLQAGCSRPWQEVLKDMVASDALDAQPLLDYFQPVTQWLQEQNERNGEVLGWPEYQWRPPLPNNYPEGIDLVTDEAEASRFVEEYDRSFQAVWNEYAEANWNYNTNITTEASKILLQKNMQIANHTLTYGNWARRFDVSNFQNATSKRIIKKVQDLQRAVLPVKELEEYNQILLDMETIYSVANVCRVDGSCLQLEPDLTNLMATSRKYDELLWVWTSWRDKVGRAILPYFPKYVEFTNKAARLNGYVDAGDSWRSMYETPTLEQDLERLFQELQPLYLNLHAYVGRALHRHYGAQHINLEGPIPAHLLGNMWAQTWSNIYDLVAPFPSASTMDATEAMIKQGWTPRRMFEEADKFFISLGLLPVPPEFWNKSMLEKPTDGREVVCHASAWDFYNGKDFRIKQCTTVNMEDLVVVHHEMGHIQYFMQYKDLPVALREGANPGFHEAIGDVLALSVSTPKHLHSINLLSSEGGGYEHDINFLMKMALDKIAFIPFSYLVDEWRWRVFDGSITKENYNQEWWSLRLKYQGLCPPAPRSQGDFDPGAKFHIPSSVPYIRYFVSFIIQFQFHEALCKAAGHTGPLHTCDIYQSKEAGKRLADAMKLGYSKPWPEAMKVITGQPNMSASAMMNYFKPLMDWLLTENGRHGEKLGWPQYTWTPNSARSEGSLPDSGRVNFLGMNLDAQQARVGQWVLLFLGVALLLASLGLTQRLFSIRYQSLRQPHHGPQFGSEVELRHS

[2] = biological target: 5-hydroxytryptamine receptor 4 (Cavia porcellus, UniProt O70528); assay type: cell membranes, Dunkin-Hartley, Striatum, Membrane; also: in other assays of this panel Not Active means under 50% inhibition at 10 µM
[3] = biological target: Sodium-dependent noradrenaline transporter (Homo sapiens, UniProt P23975); assay: DRUGMATRIX: Norepinephrine Transporter radioligand binding (ligand: [125I] RTI-55); assay type: cell membranes, MDCK, Membrane; conditions: mdck; Not Active = under 50% inhibition at 10 µM
[4] = biological target: T2, Substance-K receptor (Homo sapiens, UniProt P21452); assay type: cell membranes, CHO, Membrane; conditions: cho; also: in other assays of this panel Not Active means under 50% inhibition at 10 µM
T2 sequence (P21452 whole entry): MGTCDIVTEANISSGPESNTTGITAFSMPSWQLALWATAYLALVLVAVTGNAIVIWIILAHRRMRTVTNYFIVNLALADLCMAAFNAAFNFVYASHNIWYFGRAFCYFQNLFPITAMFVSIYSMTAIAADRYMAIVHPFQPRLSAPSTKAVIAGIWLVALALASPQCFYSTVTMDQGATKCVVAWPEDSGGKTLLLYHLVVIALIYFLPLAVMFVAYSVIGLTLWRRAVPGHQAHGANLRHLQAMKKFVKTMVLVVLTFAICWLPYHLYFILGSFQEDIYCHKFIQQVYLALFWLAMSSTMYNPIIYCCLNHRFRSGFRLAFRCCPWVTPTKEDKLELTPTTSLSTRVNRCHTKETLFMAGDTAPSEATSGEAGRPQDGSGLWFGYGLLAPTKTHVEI

[5] = DRUGMATRIX: Glutamate, Kainate radioligand binding (ligand: [3H] Kainic acid); assay type: cell membranes, Rattus norvegicus, Wistar, Brain, Membrane; conditions: Not Active = under 50% inhibition at 10 µM
[6] = DRUGMATRIX: beta-Lactamase enzyme inhibition (substrate: Nitrocefin); parameters: species or system Bacillus cereus; conditions: Not Active = under 50% inhibition at 10 µM

5-hydroxytryptamine receptor 4, sequence (O70528 whole entry): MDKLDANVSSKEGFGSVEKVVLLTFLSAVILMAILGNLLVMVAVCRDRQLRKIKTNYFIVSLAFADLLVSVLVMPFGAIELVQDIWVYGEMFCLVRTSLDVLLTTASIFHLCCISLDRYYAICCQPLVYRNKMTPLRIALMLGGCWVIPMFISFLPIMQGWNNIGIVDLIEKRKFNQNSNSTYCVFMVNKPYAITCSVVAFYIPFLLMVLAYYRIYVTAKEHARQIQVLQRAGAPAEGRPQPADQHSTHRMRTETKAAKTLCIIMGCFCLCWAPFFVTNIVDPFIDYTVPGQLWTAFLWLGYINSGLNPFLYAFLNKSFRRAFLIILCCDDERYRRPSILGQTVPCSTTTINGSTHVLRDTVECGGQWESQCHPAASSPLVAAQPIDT
Sodium-dependent noradrenaline transporter, sequence (P23975 whole entry): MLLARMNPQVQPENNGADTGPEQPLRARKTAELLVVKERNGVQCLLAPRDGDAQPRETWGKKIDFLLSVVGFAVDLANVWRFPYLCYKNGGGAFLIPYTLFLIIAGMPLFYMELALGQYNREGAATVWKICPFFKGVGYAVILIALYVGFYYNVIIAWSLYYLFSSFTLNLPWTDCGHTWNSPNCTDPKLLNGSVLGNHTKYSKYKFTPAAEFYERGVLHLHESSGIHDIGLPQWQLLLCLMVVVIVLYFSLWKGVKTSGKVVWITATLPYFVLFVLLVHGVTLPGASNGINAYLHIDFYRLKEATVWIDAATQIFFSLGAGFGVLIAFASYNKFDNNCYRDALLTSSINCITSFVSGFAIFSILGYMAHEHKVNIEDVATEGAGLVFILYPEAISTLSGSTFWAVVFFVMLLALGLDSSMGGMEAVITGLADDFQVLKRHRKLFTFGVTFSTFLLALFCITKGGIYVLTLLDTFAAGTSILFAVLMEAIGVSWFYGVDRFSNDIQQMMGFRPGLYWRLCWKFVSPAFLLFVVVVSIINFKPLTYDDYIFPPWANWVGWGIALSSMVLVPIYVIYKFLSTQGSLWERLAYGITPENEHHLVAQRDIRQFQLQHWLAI

CC(C)(C)NC[C@H](O)COc1nsnc1N1CCOCC1 [TIMOLOL]
Not Active: IC50 [1] | IC50 [2] | IC50 [3] | IC50 [4] | IC50 [5] | Ki [5] | IC50 [6] | Ki [6]

O=P(O)(O)C(O)(Cc1cccnc1)P(=O)(O)O [RISEDRONIC ACID]
Not Active: IC50 [1] | IC50 [2] | IC50 [3] | IC50 [4] | IC50 [5] | Ki [5] | IC50 [6] | Ki [6]

COc1ccc(/C=C/C(=O)Nc2ccccc2C(=O)O)cc1OC
Not Active: IC50 [1] | IC50 [2] | IC50 [3] | IC50 [4] | IC50 [5] | Ki [5] | IC50 [6] | Ki [6]

CCOC(N)=O
Not Active: IC50 [1] | IC50 [2] | IC50 [3] | IC50 [4] | IC50 [5] | Ki [5] | IC50 [6] | Ki [6]

C#CCN(C)[C@H](C)Cc1ccccc1 [SELEGILINE]
Not Active: IC50 [1] | IC50 [2] | IC50 [3] | IC50 [4] | IC50 [5] | Ki [5] | IC50 [6] | Ki [6]

Nc1ccc(S(=O)(=O)Nc2ncccn2)cc1 [SULFADIAZINE]
Not Active: IC50 [1] | IC50 [2] | IC50 [3] | IC50 [4] | IC50 [5] | Ki [5] | IC50 [6] | Ki [6]

C[C@@H]1C[C@H]2[C@@H]3CCC4=CC(=O)C=C[C@]4(C)C3=CC[C@]2(C)[C@H]1C(=O)CN1CCN(c2cc(N3CCCC3)nc(N3CCCC3)n2)CC1 [TIRILAZAD]
Not Active: IC50 [1] | IC50 [2] | IC50 [3] | IC50 [4] | IC50 [5] | Ki [5] | IC50 [6] | Ki [6]

COc1ncnc(NS(=O)(=O)c2ccc(N)cc2)c1OC [SULFADOXINE]
Not Active: IC50 [1] | IC50 [2] | IC50 [3] | IC50 [4] | IC50 [5] | Ki [5] | IC50 [6] | Ki [6]

STANNOUS FLUORIDE
Not Active: IC50 [1] | Ki [1] | IC50 [2] | Ki [2] | IC50 [3] | Ki [3] | IC50 [4] | Ki [4] | IC50 [5] | Ki [5] | IC50 [6] | Ki [6]

CC1=C(CC(=O)O)c2cc(F)ccc2/C1=C\c1ccc(S(C)(=O)=O)cc1 [EXISULIND]
Not Active: IC50 [1] | IC50 [2] | IC50 [3] | IC50 [4] | IC50 [5] | Ki [5] | IC50 [6] | Ki [6]

NC[C@H]1O[C@H](O[C@H]2[C@H](O)[C@@H](O[C@H]3O[C@H](CO)[C@@H](O)[C@H](N)[C@H]3O)[C@H](N)C[C@@H]2N)[C@H](N)C[C@@H]1O [TOBRAMYCIN]
Not Active: IC50 [1] | IC50 [2] | IC50 [3] | IC50 [4] | IC50 [5] | Ki [5] | IC50 [6] | Ki [6]

O=C(O)C(Cl)(Cl)Cl [TRICHLOROACETIC ACID]
Not Active: IC50 [1] | IC50 [2] | IC50 [3] | IC50 [4] | IC50 [5] | Ki [5] | IC50 [6] | Ki [6]
